In assay [1] the target is T1, 5-HT1A receptor (Homo sapiens, UniProt P08908).
T1 construct: purchased Perkin Elmer 6110501400UA
T1 sequence (P08908 1-422): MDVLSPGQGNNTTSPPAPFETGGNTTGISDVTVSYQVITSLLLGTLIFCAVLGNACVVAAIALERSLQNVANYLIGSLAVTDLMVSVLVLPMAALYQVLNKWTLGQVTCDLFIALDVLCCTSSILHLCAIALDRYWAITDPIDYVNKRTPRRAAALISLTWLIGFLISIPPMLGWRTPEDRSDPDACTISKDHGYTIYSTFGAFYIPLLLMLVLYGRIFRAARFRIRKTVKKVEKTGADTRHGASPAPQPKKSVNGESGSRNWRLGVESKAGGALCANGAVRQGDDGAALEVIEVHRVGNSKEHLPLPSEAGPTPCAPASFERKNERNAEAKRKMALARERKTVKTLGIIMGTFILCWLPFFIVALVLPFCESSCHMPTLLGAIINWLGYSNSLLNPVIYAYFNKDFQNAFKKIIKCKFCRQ
Briefly: 5-HT1A receptor radioligand competition assay (SPA, 8-hydroxy-DPAT [3H]). It counts as binding. The note with it: 0.5 nM hot 8-hydroxy-DPAT, membranes containing 5-HT1A. In general terms: Displacement assays read how much labelled ligand stays bound in the presence of the test substance.

Another assay deals with T2, D3 receptor (Homo sapiens, UniProt P35462).
T2 construct: host or cells: CHO cells (membrane preparation)
Briefly: Eurofins Cerep competition binding assay at D3 receptor. The note with it: 10 μM test ligand, [3H]methylspiperone, recombinant receptor in CHO cells; for inhibition at 10 µM: read-out: D3, percent of control-specific binding.

The next assay addresses T3, 5-HT2A receptor (Homo sapiens, UniProt P28223).
T3 construct: host or cells: HEK-293 cells (membrane preparation)
Briefly: biochemical. The note with it: for inhibition at 10 µM: read-out: HT2A, percent of control-specific binding. Format: binding.

Another assay concerns the target T4, alpha2A receptor (Homo sapiens, UniProt P08913).
T4 construct: host or cells: CHO cells (membrane preparation)
T4 sequence (P08913 1-465): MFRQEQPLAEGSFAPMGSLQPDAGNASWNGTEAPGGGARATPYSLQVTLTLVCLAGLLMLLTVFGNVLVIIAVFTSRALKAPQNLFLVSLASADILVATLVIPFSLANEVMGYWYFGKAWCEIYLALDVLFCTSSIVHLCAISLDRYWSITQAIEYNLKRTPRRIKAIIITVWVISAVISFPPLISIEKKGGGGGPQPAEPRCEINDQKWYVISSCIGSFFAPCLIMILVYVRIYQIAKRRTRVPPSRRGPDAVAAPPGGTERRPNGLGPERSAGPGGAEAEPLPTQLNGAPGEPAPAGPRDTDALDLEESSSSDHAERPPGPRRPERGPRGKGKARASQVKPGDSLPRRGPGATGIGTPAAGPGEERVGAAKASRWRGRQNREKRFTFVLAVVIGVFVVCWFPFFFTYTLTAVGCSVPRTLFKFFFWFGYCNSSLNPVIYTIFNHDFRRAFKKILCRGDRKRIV
Briefly: Eurofins Cerep competition binding assay at alpha2A receptor. The following applies: 10 μM test ligand; [3H]RX 821002; recombinant receptor in CHO cells.

The target of assay [2] is T5, serotonin transporter (SERT) (Homo sapiens, UniProt P31645).
T5 construct: host or cells: CHO cells (membrane preparation)
Briefly: biochemical. The following applies: for inhibition at 10 µM: read-out: SERT, percent of control-specific binding. It counts as binding.

The target in another assay is T6, MT1 receptor (Homo sapiens, UniProt P48039).
T6 construct: host or cells: CHO cells (membrane preparation)
Briefly: Eurofins Cerep competition binding assay at MT1 receptor. The note with it: for inhibition at 10 µM: read-out: MT1, percent of control-specific binding.

Another assay concerns the target T7, 5-HT2C receptor (Homo sapiens, UniProt P28335).
T7 construct: host or cells: HEK-293 cells (membrane preparation)
T7 sequence (P28335 33-458): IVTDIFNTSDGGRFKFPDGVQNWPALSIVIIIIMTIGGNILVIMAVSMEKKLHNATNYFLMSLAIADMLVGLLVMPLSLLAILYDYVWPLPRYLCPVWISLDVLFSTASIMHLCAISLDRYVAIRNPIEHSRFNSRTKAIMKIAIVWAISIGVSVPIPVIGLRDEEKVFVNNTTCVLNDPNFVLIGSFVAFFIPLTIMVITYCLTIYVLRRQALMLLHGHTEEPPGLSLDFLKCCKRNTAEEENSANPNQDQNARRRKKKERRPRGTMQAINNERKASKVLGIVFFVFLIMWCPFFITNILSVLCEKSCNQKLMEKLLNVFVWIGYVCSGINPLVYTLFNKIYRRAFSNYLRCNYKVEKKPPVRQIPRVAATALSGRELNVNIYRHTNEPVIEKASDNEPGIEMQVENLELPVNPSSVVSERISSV
Briefly: Eurofins Cerep competition binding assay at 5-HT2C receptor. The following applies: 10 μM test ligand; [125I](±)DOI; recombinant receptor in HEK-293 cells; read-out: HT2C, percent of control-specific binding.

In assay [3] the target is T1, 5-HT1A receptor. Briefly: Eurofins Cerep competition binding assay at 5-HT1A receptor. The following applies: 10 μM test ligand, [3H]8-OH-DPAT, recombinant receptor in HEK-293 cells; for inhibition at 10 µM: read-out: HT1A, percent of control-specific binding.
Assay [4] has as its target T8, dopamine transporter (DAT) (Homo sapiens, UniProt Q01959).
T8 construct: host or cells: CHO cells (membrane preparation)
Briefly: Eurofins Cerep competition binding assay at dopamine transporter. The note with it: for inhibition at 10 µM: read-out: DAT, percent of control-specific binding.

In another assay the target is T9, 5-HT2B receptor (Homo sapiens, UniProt P41595).
T9 construct: host or cells: CHO cells (membrane preparation)
Briefly: Eurofins Cerep competition binding assay at 5-HT2B receptor. The note with it: 10 μM test ligand, [3H]mesulergine, recombinant receptor in CHO cells; for inhibition at 10 µM: read-out: HT2B, percent of control-specific binding.

For the next assay, the target named is T10, 5-HT7 receptor (Homo sapiens, UniProt P34969).
T10 construct: host or cells: HEK-293 cells (membrane preparation)
Briefly: Eurofins Cerep competition binding assay at 5-HT7 receptor. The following applies: 10 μM test ligand, [3H]LSD, recombinant receptor in HEK-293 cells; for inhibition at 10 µM: read-out: HT7, percent of control-specific binding.

Assay [5] addresses T11, norepinephrine transporter (NET) (Homo sapiens, UniProt P23975).
T11 construct: host or cells: CHO cells (membrane preparation)
Briefly: Eurofins Cerep competition binding assay at norepinephrine transporter. The note with it: for inhibition at 10 µM: read-out: NET, percent of control-specific binding.

In assay [6] the target is T1, 5-HT1A receptor. Briefly: Functional 5-HT1A receptor cAMP assay in CHO-K1/5-HT1A/Gα15 cells. Format: cell-based. In general terms: cAMP levels reflect the balance of adenylyl cyclase and phosphodiesterase activity.
Setting [7] is: 10 μM test molecule, [125I](±)DOI, recombinant receptor in HEK-293 cells.

Read-outs that look alike come from different tables or passages of the source.

T3 sequence (P28223 whole entry): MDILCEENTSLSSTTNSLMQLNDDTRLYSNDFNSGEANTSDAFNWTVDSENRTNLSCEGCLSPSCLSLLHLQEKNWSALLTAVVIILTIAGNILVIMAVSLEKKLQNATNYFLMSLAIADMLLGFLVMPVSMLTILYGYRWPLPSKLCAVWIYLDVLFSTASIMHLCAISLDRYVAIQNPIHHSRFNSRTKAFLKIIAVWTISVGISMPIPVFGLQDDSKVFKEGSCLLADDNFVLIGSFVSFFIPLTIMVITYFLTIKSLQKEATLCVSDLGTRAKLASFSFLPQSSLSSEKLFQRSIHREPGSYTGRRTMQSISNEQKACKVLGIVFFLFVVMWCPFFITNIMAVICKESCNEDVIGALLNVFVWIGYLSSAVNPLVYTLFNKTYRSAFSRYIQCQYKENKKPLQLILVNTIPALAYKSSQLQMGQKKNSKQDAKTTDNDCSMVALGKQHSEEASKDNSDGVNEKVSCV
T2 sequence (P35462 whole entry): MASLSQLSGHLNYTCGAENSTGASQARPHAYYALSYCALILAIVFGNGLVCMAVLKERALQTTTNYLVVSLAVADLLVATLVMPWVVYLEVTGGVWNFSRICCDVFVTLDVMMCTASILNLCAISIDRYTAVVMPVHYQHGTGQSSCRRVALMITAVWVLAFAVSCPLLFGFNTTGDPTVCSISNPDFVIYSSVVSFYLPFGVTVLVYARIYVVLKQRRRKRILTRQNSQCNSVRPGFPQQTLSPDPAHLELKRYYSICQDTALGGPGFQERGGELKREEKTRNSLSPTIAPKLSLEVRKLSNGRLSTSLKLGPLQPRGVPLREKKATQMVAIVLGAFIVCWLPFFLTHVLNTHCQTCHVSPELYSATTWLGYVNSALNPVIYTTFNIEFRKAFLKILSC
T11 sequence (P23975 whole entry): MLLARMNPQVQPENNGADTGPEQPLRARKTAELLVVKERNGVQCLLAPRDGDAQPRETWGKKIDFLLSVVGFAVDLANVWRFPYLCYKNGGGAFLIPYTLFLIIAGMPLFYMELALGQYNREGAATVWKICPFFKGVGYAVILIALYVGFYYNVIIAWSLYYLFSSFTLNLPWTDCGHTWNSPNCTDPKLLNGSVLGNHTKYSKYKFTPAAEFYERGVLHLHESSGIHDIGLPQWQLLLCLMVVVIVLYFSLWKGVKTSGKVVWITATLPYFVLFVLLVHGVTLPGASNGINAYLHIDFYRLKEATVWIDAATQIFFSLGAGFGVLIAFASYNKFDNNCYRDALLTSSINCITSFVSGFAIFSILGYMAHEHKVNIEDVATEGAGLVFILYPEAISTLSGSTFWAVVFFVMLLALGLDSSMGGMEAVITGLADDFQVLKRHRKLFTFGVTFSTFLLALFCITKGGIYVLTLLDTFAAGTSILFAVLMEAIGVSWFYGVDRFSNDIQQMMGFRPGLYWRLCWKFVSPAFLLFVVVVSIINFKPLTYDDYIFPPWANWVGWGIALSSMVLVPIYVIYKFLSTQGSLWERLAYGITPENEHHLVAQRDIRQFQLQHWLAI
T6 sequence (P48039 whole entry): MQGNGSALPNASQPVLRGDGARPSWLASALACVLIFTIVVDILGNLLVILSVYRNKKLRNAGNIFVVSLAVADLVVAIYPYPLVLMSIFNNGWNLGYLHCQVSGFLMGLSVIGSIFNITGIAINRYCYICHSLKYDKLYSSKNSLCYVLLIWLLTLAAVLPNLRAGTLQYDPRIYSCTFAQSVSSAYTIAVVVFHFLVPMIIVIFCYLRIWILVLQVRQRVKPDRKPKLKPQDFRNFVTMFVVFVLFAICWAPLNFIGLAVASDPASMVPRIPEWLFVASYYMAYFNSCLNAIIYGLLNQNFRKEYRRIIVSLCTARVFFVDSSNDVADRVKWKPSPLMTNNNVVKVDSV
T5 sequence (P31645 whole entry): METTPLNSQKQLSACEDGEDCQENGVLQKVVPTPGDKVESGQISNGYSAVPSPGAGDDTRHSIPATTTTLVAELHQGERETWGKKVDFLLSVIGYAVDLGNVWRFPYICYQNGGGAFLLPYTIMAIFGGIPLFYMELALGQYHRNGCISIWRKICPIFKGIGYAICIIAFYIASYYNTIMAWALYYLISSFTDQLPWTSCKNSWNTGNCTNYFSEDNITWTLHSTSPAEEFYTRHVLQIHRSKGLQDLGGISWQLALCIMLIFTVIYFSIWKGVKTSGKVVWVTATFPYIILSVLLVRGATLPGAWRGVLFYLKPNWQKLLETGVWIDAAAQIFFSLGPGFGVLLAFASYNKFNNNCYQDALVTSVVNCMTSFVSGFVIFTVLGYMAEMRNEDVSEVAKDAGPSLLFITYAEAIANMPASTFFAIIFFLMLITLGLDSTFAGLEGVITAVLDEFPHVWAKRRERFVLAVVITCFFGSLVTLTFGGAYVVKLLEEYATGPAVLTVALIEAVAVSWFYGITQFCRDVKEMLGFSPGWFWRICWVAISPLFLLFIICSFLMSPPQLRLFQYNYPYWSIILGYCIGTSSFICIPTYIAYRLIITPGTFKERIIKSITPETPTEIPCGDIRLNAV
T10 sequence (P34969 whole entry): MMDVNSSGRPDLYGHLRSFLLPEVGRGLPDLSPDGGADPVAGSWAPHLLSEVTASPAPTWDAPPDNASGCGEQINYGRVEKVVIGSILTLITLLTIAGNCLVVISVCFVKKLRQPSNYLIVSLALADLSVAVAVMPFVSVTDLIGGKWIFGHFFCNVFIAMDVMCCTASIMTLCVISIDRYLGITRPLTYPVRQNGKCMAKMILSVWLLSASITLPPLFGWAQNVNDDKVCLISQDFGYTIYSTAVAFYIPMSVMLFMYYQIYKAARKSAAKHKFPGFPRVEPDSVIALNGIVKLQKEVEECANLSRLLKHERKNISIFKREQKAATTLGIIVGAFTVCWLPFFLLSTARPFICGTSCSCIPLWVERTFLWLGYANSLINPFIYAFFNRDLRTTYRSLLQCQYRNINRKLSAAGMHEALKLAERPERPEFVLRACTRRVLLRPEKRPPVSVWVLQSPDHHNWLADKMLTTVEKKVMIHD
T9 sequence (P41595 whole entry): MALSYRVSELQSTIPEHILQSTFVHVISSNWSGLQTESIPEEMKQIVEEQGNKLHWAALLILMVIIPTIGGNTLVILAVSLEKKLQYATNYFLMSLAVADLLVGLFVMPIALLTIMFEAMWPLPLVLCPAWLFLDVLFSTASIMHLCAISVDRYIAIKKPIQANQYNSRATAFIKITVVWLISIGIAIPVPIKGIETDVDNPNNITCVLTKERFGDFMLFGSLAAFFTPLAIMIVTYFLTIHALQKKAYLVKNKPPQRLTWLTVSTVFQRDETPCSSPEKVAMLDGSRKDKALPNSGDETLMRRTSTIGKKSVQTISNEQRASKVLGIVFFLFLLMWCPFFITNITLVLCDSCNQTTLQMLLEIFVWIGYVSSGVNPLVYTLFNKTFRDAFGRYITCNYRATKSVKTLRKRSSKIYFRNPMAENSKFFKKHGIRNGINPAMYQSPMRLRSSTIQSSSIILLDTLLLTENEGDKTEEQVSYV
T8 sequence (Q01959 whole entry): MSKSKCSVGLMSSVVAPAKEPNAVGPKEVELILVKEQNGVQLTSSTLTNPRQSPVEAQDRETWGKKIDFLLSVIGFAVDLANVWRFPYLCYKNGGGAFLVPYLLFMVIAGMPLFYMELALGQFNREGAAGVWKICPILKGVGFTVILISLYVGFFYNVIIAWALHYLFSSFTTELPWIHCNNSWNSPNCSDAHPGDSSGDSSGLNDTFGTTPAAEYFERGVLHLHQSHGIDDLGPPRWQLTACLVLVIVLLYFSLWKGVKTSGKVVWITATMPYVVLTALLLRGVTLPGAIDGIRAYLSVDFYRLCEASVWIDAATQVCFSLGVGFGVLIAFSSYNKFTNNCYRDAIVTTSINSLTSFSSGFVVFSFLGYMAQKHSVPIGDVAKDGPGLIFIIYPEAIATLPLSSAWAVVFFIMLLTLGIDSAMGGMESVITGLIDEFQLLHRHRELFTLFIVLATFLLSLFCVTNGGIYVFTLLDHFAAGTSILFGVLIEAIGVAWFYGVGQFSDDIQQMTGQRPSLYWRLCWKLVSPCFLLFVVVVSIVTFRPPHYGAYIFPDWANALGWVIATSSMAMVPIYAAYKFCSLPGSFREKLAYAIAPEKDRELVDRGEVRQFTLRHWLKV

Usually Ki stands for a measure of affinity in units of concentration, obtained from inhibition or displacement. On to `CC(Cc1ccc2c(c1)OCO2)CN1CCCC1` (racemic) [A(II)], for which, on 5-HT1A receptor [1], the Ki stood at 8 µM.
Regarding `COc1ccc2cccc(CCNC(C)=O)c2c1` [Agomelatine], the inhibition at 10 µM at D3 receptor came out at 6%; at 5-HT2A receptor (setting [7]) it was 61%. Moreover, the “α-2A, percent of control-specific binding” value (“α-2A, percent” for short) on alpha2A receptor was 2%.
Regarding `CC(NC(C)(C)C)C(=O)c1cccc(Cl)c1` (centres unmarked) [Bupropion], at D3 receptor, the inhibition at 10 µM was found to be 3%. The “α-2A, percent” value at alpha2A receptor is given as 2%.
The compound `CCN(CC)CCCc1ccc2c(c1)OCO2` [C(I)] came in with a Ki at 5-HT1A receptor [1] of 2.9 µM.
In the case of `c1cc2c(cc1CCCN1CCCC1)OCO2` [C(III)], the inhibition at 10 µM stood at 19% in assay [2]; 22% at D3 receptor; 3% on MT1 receptor; 37% at 5-HT2A receptor (setting [7]); 33% at 5-HT2C receptor; 72% at 5-HT1A receptor [3]. Also, the inhibition at 10 µM in assay [4] was found to be 27%; at 5-HT2B receptor it was 47%; on 5-HT7 receptor, 15%; in assay [5] it was 3%. The “α-2A, percent” value on alpha2A receptor was 36%. Further, on 5-HT1A receptor [1], the affinity, expressed as Ki, was 2.33 µM.
`Brc1cc2c(cc1CCCN1CCCC1)OCO2` [C(IV)]: the inhibition at 10 µM in [2] turned out to be 31%; on D3 receptor it was 61%; on MT1 receptor, 8%; at 5-HT2A receptor (setting [7]) it was 62%; at 5-HT2C receptor, 65%; at 5-HT1A receptor [3] it was 92%. For the same compound, the inhibition at 10 µM in assay [4] turned out to be 10%; at 5-HT2B receptor it was 73%; on 5-HT7 receptor, 40%; in [5], 0%. Further, the “α-2A, percent” value at alpha2A receptor is recorded as 55%. For the same compound, the Ki at 5-HT1A receptor [1] is 0.596 µM.
What is called EC50 is the concentration needed to bring the measured effect to its halfway point. Low readings indicate greater potency, high ones weaker potency. In turn, `COc1cc2c(cc1CCCN1CCCC1)OCO2` [C(V)] yielded an EC50 on 5-HT1A receptor [6] of 116 µM. At 5-HT1A receptor [1], this compound returned a Ki of 5 µM.
In turn, `OCCNCCCc1cc2c(cc1Br)OCO2` [C(XIII)] displayed a 50% effective concentration (EC50) at 5-HT1A receptor [6] of 22.9 µM.
On to `COc1cc(CC(C)N)c(OC)cc1Br` (centres unmarked) [DOB, reference compound], for which the “SERT, percent of control-specific binding” value in assay [2] (10 µM) came to 53%. Moreover, on D3 receptor, the “D3, percent of control-specific binding” value is recorded as 25%. On MT1 receptor (10 μM test ligand, [125I]2-iodomelatonin, recombinant receptor in CHO cells), the “MT1, percent of control-specific binding” value is on record as −3%. Further, at 5-HT2A receptor (setting [7]), the “HT2A, percent of control-specific binding” value was determined as 100%. For the same compound, the “HT1A, percent of control-specific binding” value at 5-HT1A receptor [3] turned out to be 75%. Also, in assay [4] (10 μM test ligand, [3H]BTCP, recombinant transporter in CHO cells), the “DAT, percent of control-specific binding” value came to 3%. The “HT2B, percent of control-specific binding” value at 5-HT2B receptor is 97%. Besides, the “HT7, percent of control-specific binding” value at 5-HT7 receptor turned out to be 65%. Besides, the “α-2A, percent” value at alpha2A receptor was determined as 66%. The “NET, percent of control-specific binding” value in assay [5] (10 μM test ligand, [3H]nisoxetine, recombinant transporter in CHO cells) is 6%.
On to `CNCC[C@H](Oc1cccc2ccccc12)c1cccs1` [Duloxetine], for which the inhibition at 10 µM on D3 receptor worked out at 66%; at 5-HT2A receptor, 95%. For the same compound, the “α-2A, percent” value at alpha2A receptor was found to be 54%.
In the case of `O=C(CCc1cc2c(cc1Br)OCO2)N1CCCC1` [F(IV)], the inhibition at 10 µM was determined as 0% in [2]; 12% on D3 receptor; 42% at MT1 receptor; 0% on 5-HT2A receptor (setting [7]); 8% on 5-HT2C receptor; 37% on 5-HT1A receptor [3]. Besides, the inhibition at 10 µM turned out to be 0% in assay [4], 26% on 5-HT2B receptor, 0% on 5-HT7 receptor and 0% in assay [5]. The “α-2A, percent” value on alpha2A receptor was 4%. The compound also registered an inhibition constant Ki at 5-HT1A receptor [1] of 84.5 µM.
The compound `COc1cc2c(cc1CCC(=O)N1CCCC1)OCO2` [F(V)] had an EC50 at 5-HT1A receptor [6] of 10 µM. The same compound gave a Ki on 5-HT1A receptor [1] of 364 µM.
Take `Brc1cc2c(cc1CCC1=NCCO1)OCO2` [G(V)]: the EC50 at 5-HT1A receptor [6] is 130 µM.
On to `CN(C)CCCN1c2ccccc2CCc2ccccc21` [Imipramine], for which the inhibition at 10 µM came out at 92% at D3 receptor and 97% at 5-HT2A receptor (setting [7]). At alpha2A receptor, the “α-2A, percent” value is 57%.
With `COc1ccc2[nH]cc(CCNC(C)=O)c2c1` [Melatonin], at D3 receptor, the inhibition at 10 µM was determined as 2%. The “α-2A, percent” value on alpha2A receptor was −7%.
With `O=c1n(CCCN2CCN(c3cccc(Cl)c3)CC2)nc2ccccn12` [Trazodone], at D3 receptor, the inhibition at 10 µM amounted to 89%. Besides, at alpha2A receptor, the “α-2A, percent” value is reported as 91%.
For `N#Cc1ccc2[nH]cc(CCCCN3CCN(c4ccc5oc(C(N)=O)cc5c4)CC3)c2c1` [Vilazodone], the inhibition at 10 µM on D3 receptor was 99%; at 5-HT2A receptor (setting [7]), 94%. Further, at alpha2A receptor, the “α-2A, percent” value is on record as 65%.
The corresponding values for `COc1cc(CCN)cc(OC)c1OC` [mescaline, 3,4,5 trimethoxyphenethylamine] are -13%, 79% and 57%.
The like results for `CCCOc1c(OC)cc(CCN)cc1OC` [proscaline] were, in that order, 4%, 91% and 40%.
On to `NCCc1c[nH]c2ccc(O)cc12` [serotonin], for which the inhibition at 10 µM at D3 receptor came to 73%. Further, on alpha2A receptor, the “α-2A, percent” value is given as 18%.
With `N[C@@H](Cc1c[nH]c2ccccc12)C(=O)O` [tryptophan], the inhibition at 10 µM at D3 receptor is -23%; on 5-HT2A receptor (setting [7]), -1%. Moreover, the “α-2A, percent” value at alpha2A receptor is −4%.
The corresponding values for `Cc1ccc(Sc2ccccc2N2CCNCC2)c(C)c1` [vortioxetine] are 88%, 90% and 62%.

The values above are taken from patent US12358885B2, “Substituted n-propylamine fused heterocyclic mescaline derivatives” (Enveric Biosciences Canada Inc., priority 2022, dated 2025).
